According to patent publication US20240228468A1, “N-(6-((OCTAHYDROCYCLOPENTA[C]PYRROL-5-YI)AMINO)PYRIDAZIN-3-YL)PHENYL)CARBOXAMIDE AND (6- ((OCTAHYDROCYCLOPENTA[C]PYRROL-5-YL)AMINO)PYRIDAZIN-3-YL)BENZAMIDE DERIVATIVES AS MACHR M4 ANTAGONISTS FOR THE TREATMENT OF NEURODEGENERATIVE DISORDERS” (Vanderbilt University, priority 2021, published 2024):

Molecular target: T1, Human M4 (Homo sapiens, UniProt P08173)
T1 construct: expressed in transfected cells; host or cells: CHO-K1 (ATCC), co-transfected with chimeric G protein Gqi5
T1 sequence (P08173 1-479): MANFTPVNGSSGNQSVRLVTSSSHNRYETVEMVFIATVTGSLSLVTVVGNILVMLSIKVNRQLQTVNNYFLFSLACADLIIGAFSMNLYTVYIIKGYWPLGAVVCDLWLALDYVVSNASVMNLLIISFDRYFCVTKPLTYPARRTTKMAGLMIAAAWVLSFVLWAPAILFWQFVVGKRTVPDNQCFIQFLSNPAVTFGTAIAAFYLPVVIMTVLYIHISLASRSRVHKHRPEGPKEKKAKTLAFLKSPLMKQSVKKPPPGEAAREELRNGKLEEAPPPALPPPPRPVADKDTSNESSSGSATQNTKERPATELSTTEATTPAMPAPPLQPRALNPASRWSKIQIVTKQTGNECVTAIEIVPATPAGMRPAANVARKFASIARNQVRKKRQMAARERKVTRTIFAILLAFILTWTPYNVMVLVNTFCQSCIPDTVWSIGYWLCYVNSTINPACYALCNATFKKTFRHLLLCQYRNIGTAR
Test: mAChR M4 cell-based functional assay (calcium flux, antagonism of EC80 acetylcholine response)
Settings: M4/Gqi5/CHO-K1 cells; for remaining activity at 30 µM: % ACh maximum at 30 μM, read-out: Human M4 Emin (% ACh maximum at 30 μM); for IC50: concentration-dependent decrease of the response elicited by an EC80 concentration of acetylcholine
Experimental: Human or rat M4 cDNA, along with the chimeric G protein Gqi5, were transfected into Chinese hamster ovary (CHO-K1) cells purchased from the American Type Culture Collection using Lipofectamine2000. M4/Gqi5/CHO cells were grown in Ham's F-12 medium containing 10% heat-inactivated fetal bovine serum (FBS), 20 mM HEPES, 500 μg/mL G418 sulfate, and 200 μg/mL Hygromycin B.
For high throughput measurement of agonist-evoked increases in intracellular calcium, CHO-K1 cells stably expressing muscarinic receptors were plated in growth medium lacking G418 and hygromycin at 15,000 cells/20 μL/well in Greiner 384-well black-walled, tissue culture (TC)-treated, clear-bottom plates (VWR). Cells were incubated overnight at 37° C. and 5% CO2. The next day, cells were washed using an ELX 405 (BioTek) with assay buffer; the final volume was then aspirated to 20 μL. Next, 20 μL of a 2.3 μM stock of Fluo-4/acetoxymethyl ester (Invitrogen, Carlsbad, CA), prepared as a 2.3 mM stock in DMSO and mixed in a 1:1 ratio with 10% (w/v) Pluronic F-127 and diluted in assay buffer, was added to the wells and the cell plates were incubated for 50 min at 37° C. and 5% CO2. Dye was removed by washing with the ELX 405 and the final volume was aspirated to 20 μL. Compound master plates were formatted in a 10 point concentration-response curve (CRC) format (1:3 dilutions) in 100% DMSO with a starting concentration of 10 or 1 mM using a BRAVO liquid handler (Agilent). Test compound CRCs were then transferred to daughter plates (240 nL) using the Echo acoustic plate reformatter (Labcyte, Sunnyvale, CA) and then diluted into assay buffer (40 μL) to a 2× stock using a Thermo Fisher Combi (Thermo Fisher Scientific, Waltham, MA).
Calcium flux was measured using the Functional Drug Screening System (FDSS) 6000 or 7000 (Hamamatsu Corporation, Tokyo, Japan) as an increase in the fluorescent static ratio. Compounds were applied to cells (20 μL, 2×) using the automated system of the FDSS at 2 seconds into the protocol and the data were collected at 1 Hz. At 143 s, 10 μL of an EC20 concentration of the muscarinic receptor agonist acetylcholine was added (5×), followed by the addition of 12 μL of an EC80 concentration of acetylcholine at the 268 s time point (5×). Agonist activity was analyzed as a concentration-dependent increase in calcium mobilization upon compound addition. Positive allosteric modulator activity was analyzed as a concentration-dependent increase in the EC20 acetylcholine response. Antagonist activity was analyzed as a concentration-dependent decrease in the EC80 acetylcholine response; for the purposes of the tables herein, an IC50 (inhibitory concentration 50) was calculated as a concentration-dependent decrease of the response elicited by an EC80 concentration of acetylcholine. Concentration-response curves were generated using a four-parameter logistical equation in XLFit curve fitting software (IDBS, Bridgewater, NJ) for Excel (Microsoft, Redmond, WA) or Prism (GraphPad Software, Inc., San Diego, CA) or the Dotmatics software platform (Dotmatics, Bishop's Stortford, UK).
Compounds were synthesized as described above. Activity (IC50 and Emin) was determined in the mAChR M4 cell-based functional assay as described above and the data are shown in Table 2.

remaining activity at 30 µM [%]	IC50 [nM]	Compound
4	5.1	NC(=O)c1ccc(-c2ccc(N[C@H]3C[C@@H]4CN(CC5CCOCC5)C[C@@H]4C3)nn2)c(F)c1 [Compound A36, 3-fluoro-4-(6-(((3aR,5s,6aS)-2-((tetrahydro-2H-pyran-4-yl)methyl)octahydrocyclopenta[c]pyrrol-5-yl)amino)pyridazin-3-yl)benzamide]
5	14	CN(C)C(=O)c1ccc(-c2ccc(N[C@H]3C[C@@H]4CN(CC5CCOCC5)C[C@@H]4C3)nn2)c(F)c1 [Compound A37, 3-fluoro-N,N-dimethyl-4-(6-(((3aR,5s,6aS)-2-((tetrahydro-2H-pyran-4-yl)methyl)octahydrocyclopenta[c]pyrrol-5-yl)amino)pyridazin-3-yl)benzamide]
4	48	CCN(CC)C(=O)c1ccc(-c2ccc(N[C@H]3C[C@@H]4CN(CC5CCOCC5)C[C@@H]4C3)nn2)c(F)c1 [Compound A38, N,N-diethyl-3-fluoro-4-(6-(((3aR,5s,6aS)-2-((tetrahydro-2H-pyran-4-yl)methyl)octahydrocyclopenta[c]pyrrol-5-yl)amino)pyridazin-3-yl)benzamide]
3	3.1	CCC(=O)Nc1ccc(-c2ccc(N[C@H]3C[C@@H]4CN(CC5CCOCC5)C[C@@H]4C3)nn2)cc1 [Compound A39, N-(4-(6-(((3aR,5s,6aS)-2-((tetrahydro-2H-pyran-4-yl)methyl)octahydrocyclopenta[c]pyrrol-5-yl)amino)pyridazin-3-yl)phenyl)propionamide]
3	2.5	[2H]C([2H])(C1CCOCC1)N1C[C@H]2C[C@H](Nc3ccc(-c4ccc(NC(=O)CC)cc4)nn3)C[C@H]2C1 [Compound A40, N-(4-(6-(((3aR,5s,6aS)-2-((tetrahydro-2H-pyran-4-yl)methyl-d2)octahydrocyclopenta[c]pyrrol-5-yl)amino)pyridazin-3-yl)phenyl)propionamide]
5	12	CNC(=O)c1cccc(-c2ccc(N[C@H]3C[C@@H]4CN(CC5CCOCC5)C[C@@H]4C3)nn2)c1 [Compound A41, N-methyl-3-(6-(((3aR,5s,6aS)-2-((tetrahydro-2H-pyran-4-yl)methyl)octahydrocyclopenta[c]pyrrol-5-yl)amino)pyridazin-3-yl)benzamide]
4	13	CCNC(=O)c1cccc(-c2ccc(N[C@H]3C[C@@H]4CN(CC5CCOCC5)C[C@@H]4C3)nn2)c1 [Compound A43, N-ethyl-3-(6-(((3aR,5s,6aS)-2-((tetrahydro-2H-pyran-4-yl)methyl)octahydrocyclopenta[c]pyrrol-5-yl)amino)pyridazin-3-yl)benzamide]

Second part, the compound before the results:

Compound	remaining activity at 30 µM [%]	IC50 [nM]
O=C(Nc1ccc(-c2ccc(N[C@H]3C[C@@H]4CN(CC5CCOCC5)C[C@@H]4C3)nn2)cc1)C1CC1 [Compound A26, N-(4-(6-(((3aR,5s,6aS)-2-((tetrahydro-2H-pyran-4-yl)methyl)octahydrocyclopenta[c]pyrrol-5-yl)amino)pyridazin-3-yl)phenyl)cyclopropanecarboxamide]	3	6.8
O=C(NC1CC1)c1ccc(-c2ccc(N[C@H]3C[C@@H]4CN(CC5CCOCC5)C[C@@H]4C3)nn2)cc1 [Compound A27, N-cyclopropyl-4-(6-(((3aR,5s,6aS)-2-((tetrahydro-2H-pyran-4-yl)methyl)octahydrocyclopenta[c]pyrrol-5-yl)amino)pyridazin-3-yl)benzamide]	3	3.9
O=C(NC1CC1)c1cccc(-c2ccc(N[C@H]3C[C@@H]4CN(CC5CCOCC5)C[C@@H]4C3)nn2)c1 [Compound A28, N-cyclopropyl-3-(6-(((3aR,5s,6aS)-2-((tetrahydro-2H-pyran-4-yl)methyl)octahydrocyclopenta[c]pyrrol-5-yl)amino)pyridazin-3-yl)benzamide]	3	25
CC(=O)Nc1cccc(-c2ccc(N[C@H]3C[C@@H]4CN(CC5CCOCC5)C[C@@H]4C3)nn2)c1 [Compound A29, N-(3-(6-(((3aR,5s,6aS)-2-((tetrahydro-2H-pyran-4-yl)methyl)octahydrocyclopenta[c]pyrrol-5-yl)amino)pyridazin-3-yl)phenyl)acetamide]	3	34
O=C(Nc1cccc(-c2ccc(N[C@H]3C[C@@H]4CN(CC5CCOCC5)C[C@@H]4C3)nn2)c1)C1CC1 [Compound A30, N-(3-(6-(((3aR,5s,6aS)-2-((tetrahydro-2H-pyran-4-yl)methyl)octahydrocyclopenta[c]pyrrol-5-yl)amino)pyridazin-3-yl)phenyl)cyclopropanecarboxamide]	3	13
[2H]C([2H])(C1CCOCC1)N1C[C@H]2C[C@H](Nc3ccc(-c4cccc(NC(C)=O)c4)nn3)C[C@H]2C1 [Compound A31, N-(3-(6-(((3aR,5s,6aS)-2-((tetrahydro-2H-pyran-4-yl)methyl-d2)octahydrocyclopenta[c]pyrrol-5-yl)amino)pyridazin-3-yl)phenyl)acetamide]	3	11
[2H]C([2H])(C1CCOCC1)N1C[C@H]2C[C@H](Nc3ccc(-c4cccc(NC(=O)C5CC5)c4)nn3)C[C@H]2C1 [Compound A32, N-(3-(6-(((3aR,5s,6aS)-2-((tetrahydro-2H-pyran-4-yl)methyl-d2)octahydrocyclopenta[c]pyrrol-5-yl)amino)pyridazin-3-yl)phenyl)cyclopropanecarboxamide]	3	16
[2H]C([2H])(C1CCOCC1)N1C[C@H]2C[C@H](Nc3ccc(-c4cccc(C(=O)NC5CC5)c4)nn3)C[C@H]2C1 [Compound A33, N-cyclopropyl-3-(6-(((3aR,5s,6aS)-2-((tetrahydro-2H-pyran-4-yl)methyl-d2)octahydrocyclopenta[c]pyrrol-5-yl)amino)pyridazin-3-yl)benzamide]	3	22
[2H]C([2H])(C1CCOCC1)N1C[C@H]2C[C@H](Nc3ccc(-c4ccc(C(=O)NC5CC5)cc4)nn3)C[C@H]2C1 [Compound A34, N-cyclopropyl-4-(6-(((3aR,5s,6aS)-2-((tetrahydro-2H-pyran-4-yl)methyl-d2)octahydrocyclopenta[c]pyrrol-5-yl)amino)pyridazin-3-yl)benzamide]	4	1.1
[2H]C([2H])(C1CCOCC1)N1C[C@H]2C[C@H](Nc3ccc(-c4ccc(NC(=O)C5CC5)cc4)nn3)C[C@H]2C1 [Compound A35, N-(4-(6-(((3aR,5s,6aS)-2-((tetrahydro-2H-pyran-4-yl)methyl-d2)octahydrocyclopenta[c]pyrrol-5-yl)amino)pyridazin-3-yl)phenyl)cyclopropanecarboxamide]	4	1.2
